Test [1] concerns the target Carbonic anhydrase 1 (Homo sapiens, UniProt P00915).
Description: Inhibition of human recombinant carbonic anhydrase 1 preincubated for 15 mins by stopped flow CO2 hydration method
In test [2] the target is Carbonic anhydrase 14 (Homo sapiens, UniProt Q9ULX7).
Description: Inhibition of human recombinant carbonic anhydrase 14 preincubated for 15 mins by stopped flow CO2 hydration method
In test [3] the target is Carbonic anhydrase 12 (Homo sapiens, UniProt O43570).
Description: Inhibition of human recombinant carbonic anhydrase 12 preincubated for 15 mins by stopped flow CO2 hydration method
The target of test [4] is Carbonic anhydrase 9 (Homo sapiens, UniProt Q16790).
In test [5] the target is Carbonic anhydrase 2 (Homo sapiens, UniProt P00918).
Description: Inhibition of human recombinant carbonic anhydrase 2 preincubated for 15 mins by stopped flow CO2 hydration method

pIC50: −log10 of the molar value.

Data on 21 molecules can be found in ChEMBL document CHEMBL3232909, “Arylamino bisphosphonates: potent and selective inhibitors of the tumor-associated carbonic anhydrase XII” (Bioorg Med Chem Lett, 2014).

Chain of Carbonic anhydrase 14 (Q9ULX7 whole entry): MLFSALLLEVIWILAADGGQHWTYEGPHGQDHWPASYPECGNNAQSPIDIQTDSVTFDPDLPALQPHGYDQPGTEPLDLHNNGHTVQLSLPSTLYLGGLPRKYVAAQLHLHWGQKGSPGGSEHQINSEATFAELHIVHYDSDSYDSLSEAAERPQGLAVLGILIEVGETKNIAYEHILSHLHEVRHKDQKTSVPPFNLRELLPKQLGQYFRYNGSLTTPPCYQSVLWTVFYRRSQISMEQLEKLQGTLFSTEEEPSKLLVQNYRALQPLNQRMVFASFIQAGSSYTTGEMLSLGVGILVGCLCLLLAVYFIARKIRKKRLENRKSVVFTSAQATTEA
Chain of Carbonic anhydrase 1 (P00915 whole entry): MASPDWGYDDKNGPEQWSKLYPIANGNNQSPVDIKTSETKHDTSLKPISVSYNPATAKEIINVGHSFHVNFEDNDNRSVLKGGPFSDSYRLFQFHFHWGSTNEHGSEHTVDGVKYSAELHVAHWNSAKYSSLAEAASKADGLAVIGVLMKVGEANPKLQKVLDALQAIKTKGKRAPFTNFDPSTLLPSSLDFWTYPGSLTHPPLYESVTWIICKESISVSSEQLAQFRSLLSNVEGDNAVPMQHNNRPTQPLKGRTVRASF
Chain of Carbonic anhydrase 12 (O43570 whole entry): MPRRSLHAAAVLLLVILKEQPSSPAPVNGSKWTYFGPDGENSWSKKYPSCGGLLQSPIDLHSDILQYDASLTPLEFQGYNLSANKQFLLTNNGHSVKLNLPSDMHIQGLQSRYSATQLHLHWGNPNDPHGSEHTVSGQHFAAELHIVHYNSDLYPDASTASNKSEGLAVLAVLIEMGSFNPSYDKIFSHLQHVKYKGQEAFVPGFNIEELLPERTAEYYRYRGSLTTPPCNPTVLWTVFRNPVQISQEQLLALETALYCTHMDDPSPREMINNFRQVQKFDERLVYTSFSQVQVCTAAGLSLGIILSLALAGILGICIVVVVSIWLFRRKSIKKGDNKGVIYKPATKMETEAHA

Turning to `O=P(O)(O)C(Nc1cccc(Br)c1)P(=O)(O)O`, the negative logarithm of the IC50 (pIC50) (usually −log10 of the IC50, conventionally taken in molar units) in test [1] was 5.08; in test [2], 6.04; in test [3], under 5.00; in test [4], under 5.00; in test [5] it was under 5.00.
`O=P(O)(O)C(Nc1ccc(Br)cc1)P(=O)(O)O`: the pIC50 was under 5.00 in test [1]; under 5.00 in test [2]; 6.62 in test [3]; under 5.00 in test [4]; under 5.00 in test [5].
Take `Cc1ccc(NC(P(=O)(O)O)P(=O)(O)O)cc1` [(P-TOLYLAMINO)METHYLENEDIPHOSPHONIC ACID]: the pIC50 in test [1] is 5.23; in test [2], under 5.00; in test [3], 6.46; in test [4] it was under 5.00; in test [5], under 5.00.
Take `O=P(O)(O)C(O)(Cn1ccnc1)P(=O)(O)O` [ZOLEDRONIC ACID]: the negative-log IC50 (pIC50) is under 5.00 in test [1]; 7.04 in test [2]; 6.50 in test [3]; 5.27 in test [4]; 7.21 in test [5].
For the molecule `O=P(O)(O)C(Nc1ccc(Cl)cc1Cl)P(=O)(O)O` [2,4-DICHLOROPHENYLAMINOMETHYLENEBISPHOSPHONIC ACID], the negative-log IC50 (pIC50) in test [1] is 5.15; in test [2], 5.13; in test [3], under 5.00; in test [4], under 5.00; in test [5], under 5.00.
For the molecule `O=P(O)(O)C(Nc1ccc(C(F)(F)F)cc1)P(=O)(O)O`, the negative logarithm of the IC50 (pIC50) in test [1] was 5.22; in test [2], under 5.00; in test [3] it was 7.05; in test [4], under 5.00; in test [5], under 5.00.
In the case of `O=P(O)(O)C(Nc1ccc(Oc2ccccc2)cc1)P(=O)(O)O`, the pIC50 in test [1] was under 5.00; in test [2], 5.26; in test [3], under 5.00; in test [4] it was 5.09; in test [5] it was under 5.00.
`O=[N+]([O-])c1cc(NC(P(=O)(O)O)P(=O)(O)O)ccc1F`: the pIC50 in test [1] is 5.26; in test [2], 5.06; in test [3], under 5.00; in test [4], under 5.00; in test [5], under 5.00.
`O=P(O)(O)C(Nc1ccc(-c2ccccc2)cc1)P(=O)(O)O`: the pIC50 is under 5.00 in test [1]; 5.09 in test [2]; under 5.00 in test [3]; under 5.00 in test [4]; under 5.00 in test [5].
Regarding `O=P(O)(O)C(Nc1ccc(Oc2ccc(Br)cc2)cc1)P(=O)(O)O`, the pIC50 in test [1] is under 5.00; in test [2], 5.21; in test [3], under 5.00; in test [4] it was 5.09; in test [5], 5.13.
With `O=P(O)(O)C(Nc1cccc(-c2ccccc2)c1)P(=O)(O)O`, the pIC50 was under 5.00 in test [1]; 6.51 in test [2]; under 5.00 in test [3]; 5.12 in test [4]; 5.03 in test [5].
As to `O=P(O)(O)C(Nc1ccc(Oc2ccc(Cl)cc2)cc1)P(=O)(O)O`, the negative-log IC50 (pIC50) in test [1] is under 5.00; in test [2], 5.35; in test [3] it was under 5.00; in test [4] it was 5.08; in test [5] it was 5.03.
As for `O=P(O)(O)C(Nc1ccc(Cl)c(Cl)c1)P(=O)(O)O` [3,4-DICHLOROPHENYLAMINOMETHYLENEBISPHOSPHONIC ACID], the negative-log IC50 (pIC50) in test [1] is under 5.00; in test [2], 5.11; in test [3] it was under 5.00; in test [4], under 5.00; in test [5], under 5.00.
With `O=P(O)(O)C(Nc1cccc2ccccc12)P(=O)(O)O`, the pIC50 in test [1] is under 5.00; in test [2], 6.50; in test [3], 5.16; in test [4] it was under 5.00; in test [5] it was 5.04.
As for `O=P(O)(O)C(Nc1cccc(F)c1)P(=O)(O)O`, the negative logarithm of the IC50 (pIC50) in test [1] was under 5.00; in test [2], 7.09; in test [3], 5.06; in test [4], 5.08; in test [5], under 5.00.
In the case of `O=[N+]([O-])c1ccc(NC(P(=O)(O)O)P(=O)(O)O)cc1`, the pIC50 in test [1] is 5.10; in test [2] it was under 5.00; in test [3], 6.38; in test [4], under 5.00; in test [5], under 5.00.
In the case of `O=P(O)(O)C(Nc1ccc(O)cc1)P(=O)(O)O`, the pIC50 was 5.34 in test [1]; under 5.00 in test [2]; 7.11 in test [3]; under 5.00 in test [4]; 5.09 in test [5].
As to `O=P(O)(O)C(Nc1ccc(F)cc1)P(=O)(O)O`, the negative-log IC50 (pIC50) is under 5.00 in test [1]; under 5.00 in test [2]; 6.57 in test [3]; under 5.00 in test [4]; under 5.00 in test [5].
In the case of `O=P(O)(O)C(Nc1cccc(C(F)(F)F)c1)P(=O)(O)O`, the pIC50 is 5.23 in test [1]; under 5.00 in test [2]; 7.04 in test [3]; under 5.00 in test [4]; under 5.00 in test [5].
In the case of `O=[N+]([O-])c1cccc(NC(P(=O)(O)O)P(=O)(O)O)c1` [(3-NITROPHENYLAMINO)METHYLENEDIPHOSPHONIC ACID], the pIC50 in test [1] was 6.09; in test [2], under 5.00; in test [3], 7.06; in test [4] it was under 5.00; in test [5] it was under 5.00.
For the molecule `O=P(O)(O)C(Nc1ccccc1)P(=O)(O)O` [(PHENYLAMINO)METHYLENEDIPHOSPHONIC ACID], the negative logarithm of the IC50 (pIC50) is under 5.00 in test [1]; under 5.00 in test [2]; 6.36 in test [3]; 5.05 in test [4]; under 5.00 in test [5].
